Results as given in patent US20230303623A1, “PEPTIDES AND METHODS OF USE” (REALTA LIFE SCIENCES, INC., priority 2020, published 2023).
“Also recorded” adds a separate entry of the source.

Key:
[1] = test system: purified human Pan T-cells; test: T-cell exhaustion protocol (repeated CD3/CD28 Dynabead stimulation); assay type: cell-based; settings: ELISA, listed as RLS-0122
Method: Purified human pan-T-cells were subject to stimulation with Dynabeads every 48 hours over the period of 8 days with cells also receiving PIC1 peptides (2 mg/ml) at each stimulation. Cells not receiving Dynabeads were run in parallel to assess background levels of Caspase 3/7 signal. At the eighth day, cells were harvested, and the levels of Caspase 3/7 determined by ELISA.
Purified human pan-T-cells were subject to stimulation with Dynabeads every 48 hours over the period of 8 days with cells also receiving PIC1 peptides (2 mg/ml) at each stimulation. Cell supernatants were collected at each stimulation and levels of IL-2 and IFN-gamma assayed by ELISA.
T-cell exhaustion is a form of T-cell dysfunction that occurs in cancer. It is generally defined by poor effector function, reduction in cytokine release (e.g., IL-2, TNF-alpha, IFN-gamma), sustained expression of inhibitory receptors (e.g., PD-1, LAG-3, CD244, CD160) with the progressive loss of effector function due to overstimulation. Exhaustion can prevent optimal control of tumor growth. Exhausted T cells are prevalent in the tumor microenvironment (TME) and can lead to T-cell apoptosis. T-cell exhaustion is reversible and pharmaceutical inhibition of T-cell exhaustion has been considered a promising strategy by many cancer researchers. To ascertain if PIC1 peptides could reverse T-cell exhaustion and increase T cell viability and effector function, a T-cell exhaustion protocol was developed. To induce T-cell exhaustion, purified human Pan T-cells were stimulated with T-Activator CD3/CD28 Dynabeads and cells were washed and re-stimulated every 48 hours. PIC1 peptides were added to the cells after each stimulation with Dynabeads. After three to four stimulations, cells were harvested for readouts which consisted of assessing T-cell apoptosis by measuring Caspase 3/7 levels and production of cytokines IL-2 and IFN-gamma, which are indicative of T-cell functionality. […] To further evaluate if PIC1 peptides could restore T-cell functionality in cells that have undergone the exhaustion protocol, the inventors next assessed production of cytokines IL-2 and IFN-gamma. Supernatants from the cells after each stimulation was collected and the cytokines measured by ELISA. […] The lower level of IFN-gamma signal was consistently seen in this assay.

VEGF = biological target: T1, VEGF (Homo sapiens, UniProt P15692); test: VEGF binding ELISA plate-based assay; settings: peptides 1 mg/ml
T1 construct: Promega (bioassay)
T1 sequence (P15692 27-191 isoform P15692-4): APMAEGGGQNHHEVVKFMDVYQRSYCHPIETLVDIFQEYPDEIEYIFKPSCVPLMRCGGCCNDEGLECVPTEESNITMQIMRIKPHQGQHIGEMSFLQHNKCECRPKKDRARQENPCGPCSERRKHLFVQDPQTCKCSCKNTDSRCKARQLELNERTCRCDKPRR
Method: A fixed amount of PIC1 peptides (1 mg/ml) were added to the plates followed by a rabbit polyclonal antibody that recognizes the peptides and then a secondary anti-rabbit antibody conjugated with HRP. The plate was then developed by addition of TMB as the substrate for the colorimetric assay.
Angiogenesis, or the formation of new blood vessels from the established vasculature, is an essential element in tumor growth and metastasis formation. Inhibiting tumor angiogenesis is considered a major therapeutic strategy in oncology. […] The bioluminescent signal is detected in a luminometer.

C1q = biological target: T2, C1q (Homo sapiens, UniProt P02745+P02746+P02747); test: C1q binding ELISA-type assay; settings: compared to parent peptide
T2 construct: purchased Complement Technology (Tyler, TX)
Method: The C1q binding assay was performed as previously described. Briefly, an Immunlon-2 HB ELISA plate was coated with 1 μg/ml C1q in bicarbonate buffer overnight at 4° C. The plates were washed with PBS-T (phosphate buffered saline+0.1% Tween) and then blocked with 1% gelatin/PBS for 2 hours at room temperature. After washing, the plates were incubated with the peptides starting at 2.5 mg/ml and then serially diluted in 1% gelatin/PBS for 1 hour at room temperature followed by washing. Plates were then probed with rabbit antibody raised against the lead peptide […] (SEQ ID NO: 2) that lacked PEGylation at 1:1000 in 1% gelatin/PBS for 1 hour at room temperature followed by a goat anti-rabbit HRP (Sigma Aldrich, St Louis, MO) at 1:1,000 in 1% gelatin/PBS for 1 hour at room temperature with a washing step in between. After addition of TMB substrate solution to the wells, the reaction was stopped using 1N H2SO4, and the plate read on a BioTek Synergy HT plate reader at 450 nm.
The astrovirus capsid protein and the PIC1 molecules derived from it inhibit classical complement pathway activation by binding to the pattern recognition molecule C1q. The inventors next tested peptide variant binding to C1q in an ELISA-type assay in which C1q is used as the capture substrate and bound peptide detected with a rabbit polyclonal antibody against the peptide portion of PA-dPEG24 ([…]-d24; SEQ ID NO: 3). Binding curves were derived for the stapled and D-amino acid peptides based on the PA-I8Sar and PA-C9Sar (FIG. 5A-5C) backbone, from which half-maximal binding concentrations were calculated (FIGS. 2A and B, respectively). […] For the peptides based on the PA-C9Sar backbone, C1q was bound to a greater degree than the parent peptide (FIG. 2B).

[2] = peptides 2 mg/ml, stimulation 2

T2 sequence (P02745 23-245): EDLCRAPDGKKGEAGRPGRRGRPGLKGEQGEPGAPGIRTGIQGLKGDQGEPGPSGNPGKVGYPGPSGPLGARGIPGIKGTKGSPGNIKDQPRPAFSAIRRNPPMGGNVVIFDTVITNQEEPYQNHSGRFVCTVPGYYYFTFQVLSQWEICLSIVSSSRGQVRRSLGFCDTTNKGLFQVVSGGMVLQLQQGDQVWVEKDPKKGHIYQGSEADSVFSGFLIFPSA
T2 sequence (P02746 28-253): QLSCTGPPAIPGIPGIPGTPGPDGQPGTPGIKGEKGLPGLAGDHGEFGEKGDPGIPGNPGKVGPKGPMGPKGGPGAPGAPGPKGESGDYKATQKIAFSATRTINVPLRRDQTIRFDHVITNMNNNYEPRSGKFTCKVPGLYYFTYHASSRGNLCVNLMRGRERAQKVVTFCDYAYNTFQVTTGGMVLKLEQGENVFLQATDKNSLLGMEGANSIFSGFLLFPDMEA
T2 sequence (P02747 29-245): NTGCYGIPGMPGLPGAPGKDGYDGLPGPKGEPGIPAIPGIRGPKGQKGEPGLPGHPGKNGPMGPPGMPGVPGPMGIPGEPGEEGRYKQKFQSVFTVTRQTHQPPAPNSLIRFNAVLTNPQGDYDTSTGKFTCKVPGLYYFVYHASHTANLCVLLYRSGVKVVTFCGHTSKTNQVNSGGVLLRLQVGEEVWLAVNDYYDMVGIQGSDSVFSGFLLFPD

With “IAdLILEP(Sar)CCQERAA (IALILEPXCCQERAA; D-Leu; sarcosine; MOD_RES (3)..(3) D-amino acid; MOD_RES (8)..(8) Sarcosine) [PA-0122]” the “Caspase 3/7 levels, in words” value ([1]; peptides 2 mg/ml at each stimulation, day 8) was “very low to undetectable levels; also recorded: reduced levels”, the “IFN-gamma levels in cell supernatants, in words” value [1, 2] was “detectable at stimulation 2; also recorded: increased levels” and the “IL-2 levels in cell supernatants, in words” value [1, 2] was “detectable IL-2 at stimulation 2; also recorded: increased levels”. For the same substance, the “binding to VEGF, in words” value (VEGF) was “binding with high affinity” and the “binding to C1q (binding curves, half-maximal binding), in words” value (C1q) was “markedly increased binding to C1q”.
